Legend:
[1] = system: streptozotocin-induced diabetic rats; assay: Cutaneous tissue blood flow in streptozotocin-induced diabetic rats; type: in vivo, rat
Method: Diabetes was induced by single intravenous injection of 50 mg/kg streptozotocin (STZ) in 7-week-old male Crl: CD(SD) rats. Animals with plasma glucose levels 400 mg/dL or more on day 19 after the STZ treatment were used in this study. Three weeks after the STZ injection, animals were anesthetized by an intraperitoneal injection of thiobutabarbital sodium. Body temperature (rectal temperature) of the animals was maintained at approximately 37° C. throughout the experiment with a heating pad After depilating the instep of the right hind limb with a depilatory cream, the cutaneous tissue blood flow (CTBF) was measured continuously using a non-contact type laser Doppler flowmeter (FLO-N1, Omegawave Inc., Japan). The blood pressure and heart rate were simultaneously monitored. Compound A or the vehicle was intravenously administered to the animals over 10 min.

[2] = system: platelet-rich plasma (PRP); assay: ADP-induced platelet aggregation in rabbit platelet-rich plasma; type: cell-based; details: for Maximum aggregation: ADP-induced, mean ± S.E. of 3 rabbits; for Inhibition of platelet aggregation: vs vehicle control (100%)
Method: Four months old male Kbs: J.W. rabbits were housed in aluminum cages in an animal room controlled for roomtemperature (23-24° C.), relative humidity (55-74%), ventilation rate (10-20 times/hour) and 12-hour light/dark cycle (lighting: 7:00 a.m.-7:00 p.m.). The animals were feeded with solid diet for rabbits (120 g/animal/day) and water ad libitum from automatic eatering system. The animals were subjected to at least 6 days of quarantine and acclimation. During the period, their body weight measurements and general sign observations were conducted, and the animals judged to be in good health were used in this study.
A cannula was inserted into the common carotid artery of the rabbit under inhalation anesthesia of isoflurane. Nine parts of the blood samples obtained through the cannula were mixed with 1 part of 3.8 w/v % sodium citrate. After centrifugation of the blood samples for 10 min at 1,000 rpm, platelet-rich plasma (PRP) was collected from the top layer. Then the bottom layer was further centrifuged for 15 min at 3,000 rpm, and platelet-poor plasma (PPP) was collected from the top layer. The platelet counts of the PRP and PPP fractions were performed using an ADVIA120 Hematology system (ADVIA120, Bayer Medical Ltd.). The PRP fraction was diluted with the PPP fraction so that the platelet counts was adjusted to approximately 30×10^4 cells/μL. Thus obtained PRP (0.178 mL) was put into a cuvet, and pre-incubated on a warm bath at 37° C. for about 5 minutes. Test solution (0.022 mL) containing prostaglandin E1 or Compound A was added to the PRP. One minute later, 25 μM ADP solution (0.022 mL) was added and the degree of platelet aggregation was measured using a platelet aggregation measuring device (NBS hematolaser, Nikko Bioscience Inc.). For each test solution, a duplicate test was performed on the blood samples from 3 animals. Inhibition rate (%) was evaluated by comparing the aggregation in the test substance group with that in the vehicle control group (100%).

Male Wistar rats = assay: Decreased peripheral microcirculation (cutaneous tissue blood flow) induced by ET-1 infusion in rats; type: in vivo, rat; details: 100 μg/kg i.v.; for blood pressure: ET-1 infused rats; for cutaneous tissue blood flow: flow decreased by ET-1 infusion, up to 60 min after administration, vs vehicle
Method: Male Wistar rats (7-week-old) were used in this study. Animals were anesthetized by intraperitoneal injection of thiobutabarbital sodium (80 mg/kg). Body temperature (rectal temperature) of the animals was maintained at approximately 37° C. throughout the experiment with a heating pad. After depilating the instep of the right hind limb with a depilatory cream, the cutaneous tissue blood flow was measured continuously using a non-contact type laser Doppler flowmeter (FLO-N1, Omegawave Inc., Japan). For measurements of mean arterial blood pressure, a polyethylene catheter placed in the left femoral artery was connected to a pressure transducer (TP-400T, Nihon Koden Inc., Japan) coupled to an amplifier (AP-641G, Nihon Koden Inc., Japan). The cutaneous tissue blood flow and blood pressure were recorded and analyzed using a computer system (HEM Ver. 3.5, Notocord Systems, France). Endothelin-1 (ET-1) was infused into the femoral artery at a rate of 200 pmol/kg/min with a syringe pump via the polyethylene catheter inserted retrogradely into the caudal epigastric artery branched from the right femoral artery for 15 minutes. Infusion rate of ET-1 was decreased to 20 pmol/kg/min after the termination of 200 pmol/kg/min infusion, and the decreased amount of ET-1 infusion was kept until the end of this study. The cutaneous tissue blood flow was decreased by the infusion of ET-1 into the femoral artery. When the cutaneous tissue blood flow was reached a new steady level (25 to 50 minutes after starting ET-1 infusion), vehicle or each test compound solution was administered to the animals over 2 minutes in a volume of 1 mL/kg via the polyethylene catheter placed in the left femoral vein. The administered amount of the test compound was 100 μg/kg. The cutaneous tissue blood flow and blood pressure were measured continuously and recorded every 5 minutes for 60 minutes after the administration of vehicle or each test solution.

Male GK/Jcl rats = assay: Cutaneous tissue blood flow in spontaneous diabetes rats; type: in vivo, rat
Method: Male GK/Jcl rats, a spontaneous model of non-insulin-dependent diabetes, were anesthetized by an intraperitoneal injection of thiobutabarbital sodium. Body temperature (rectal temperature) of the animals was maintained at approximately 37° C. throughout the experiment with a heating pad. After depilating the instep of the right hind limb with a depilatory cream, the cutaneous tissue blood flow (CTBF) was measured before (base line) and 20 minutes after intravenous administration of Compound A or the vehicle using a non-contact type laser Doppler flowmeter (FLO-N1, Omegawave Inc., Japan). Data was expressed as % compared with the base line cutaneous tissue blood flow.

[3] = system: male Japanese white rabbits; assay: Intraocular pressure after topical eye application in rabbits; type: in vivo, rabbit; details: 0.0016% topical
Method: Eight male Japanese white rabbits (Std: JW/CSK) weighing approximately 2.5-3.5 kg were used in this study. The same eye of each animal was treated with the test compounds and the other eye was with the vehicle consistently throughout the study with a washout period between each treatment. Thirty microliters of each test compound solution was applied topically to one eye of each animal using a micropipette (Pipetman, Gilson, Inc., France). The contralateral control eye received an equal volume of the vehicle. The animals were dosed at approximately the same time each morning. After the animals were restrained in a holder, one drop of topical anesthetic (0.4% oxybuprocaine hydrochloride) was applied to both eyes and the IOP was measured with an applanation pneumatonometer (Model 30 Classic™, Mentor O & O, Inc., USA) before dosing, and at 1, 2, 4, 6, and 8 hours after dosing.

Male Crl: CD(SD) rats = assay: Cutaneous tissue blood flow in anesthetized rats; type: in vivo, rat
Method: Male Crl: CD(SD) rats were anesthetized by an intraperitoneal injection of thiobutabarbital sodium. Body temperature (rectal temperature) of the animals was maintained at approximately 37° C. throughout the experiment with a heating pad. After depilating the instep of the right hind limb with a depilatory cream, the cutaneous tissue blood flow CTBF) was measured before and 30 minutes after intravenous administration of Compound C (11-deoxy-13,14-dihyrdo-16,16-difluoro-PGE1) or the vehicle using a non-contact type laser Doppler flowmeter (FLO-N1, Omegawave Inc., Japan). The blood pressure and heart rate were also monitored.

## CCCCC(F)(F)C(=O)CCC1CCC(=O)C1CCCCCCC(=O)O (centres unmarked) [Compound A, 11-deoxy-13,14-dihydro-15-keto-16,16-difluoro-PGE1]
[1]; 30 μg/kg i.v. over 10 min, before dosing (baseline), mean ± S.E., n=5
  Cutaneous Tissue Blood Flow, Pre: 4.8 ± 0.5 mL/min/100 g tissue
[1]; STZ diabetic rats, i.v.
  blood pressure (BP): no effects
  heart rate: no effects
[1]; STZ diabetic rats, i.v., compared with vehicle
  cutaneous tissue blood flow (in words): significantly increased
[2]; 1 × 10^−5 g/mL
  Maximum aggregation: 36.8 ± 3.1%
  Inhibition of platelet aggregation: −1.4%
[2]; 1 × 10^−6 g/mL
  Maximum aggregation: 36.2 ± 4.0%
  Inhibition of platelet aggregation: 0.3%
[2]; 1 × 10^−7 g/mL
  Maximum aggregation: 35.2 ± 3.9%
  Inhibition of platelet aggregation: 3.0%
[2]; up to the highest concentration (1×10^−5 g/mL) tested
  effect on platelet aggregation (in words): no effect
Male Wistar rats
  blood pressure: no significant effect
  cutaneous tissue blood flow: significantly increased
Male GK/Jcl rats; 20 μg/kg i.v., 20 minutes after administration, mean ± S.E., n=5
  Cutaneous Tissue Blood Flow compared with the base line: 122 ± 1 %
Male GK/Jcl rats; spontaneous diabetes rats, i.v., compared with vehicle
  cutaneous tissue blood flow (in words): significantly increased
[3]; 30 μL, 1 hr, mean ± SE, n=8
  IOP, 1 hr after administration: 13.1 ± 0.6 mmHg
[3]; 30 μL, 2 hr, mean ± SE, n=8
  IOP, 2 hr after administration: 14.5 ± 0.6 mmHg
[3]; 30 μL, 4 hr, mean ± SE, n=8
  IOP, 4 hr after administration: 13.8 ± 0.8 mmHg
[3]; 30 μL, 6 hr, mean ± SE, n=8
  IOP, 6 hr after administration: 15.1 ± 1.0 mmHg
[3]; 30 μL, 8 hr, mean ± SE, n=8
  IOP, 8 hr after administration: 17.5 ± 1.3 mmHg
[3]; 30 μL, before dosing (baseline), mean ± SE, n=8
  IOP, Pre: 17.0 ± 0.8 mmHg
[3]; vs vehicle-treated contralateral eye
  intraocular pressure (in words): significantly lowered

## CCCCC(F)(F)C(=O)CCC1CCC(=O)C1CCCCCCC(=O)OC(C)C (centres unmarked) [Compound B, 11-deoxy-13,14-dihydro-15-keto-16,16-difluoro-PGE1 isopropyl ester]
Male Wistar rats
  blood pressure: no significant effect
  cutaneous tissue blood flow: significantly increased

## CCCCC(F)(F)C(O)CCC1CCC(=O)C1CCCCCCC(=O)O (centres unmarked) [Compound C, 11-deoxy-13,14-dihyrdo-16,16-difluoro-PGE1]
Male Crl: CD(SD) rats; 10 μg/kg i.v., 30 minutes after administration, mean ± S.E., n=5
  Cutaneous Tissue Blood Flow, After administration: 13.0 ± 0.2 mL/min/100 g tissue
Male Crl: CD(SD) rats; 10 μg/kg i.v., before administration (baseline), mean ± S.E., n=5
  Cutaneous Tissue Blood Flow, Before administration: 11.6 ± 0.3 mL/min/100 g tissue
Male Crl: CD(SD) rats; i.v.
  blood pressure: no effects
  heart rate: no effects
Male Crl: CD(SD) rats; i.v., compared with vehicle treatment
  cutaneous tissue blood flow (in words): significantly increased

## CCCCC[C@H](O)/C=C/[C@H]1[C@H](O)CC(=O)[C@@H]1CCCCCCC(=O)O [PGE1, prostaglandin E1, reference compound]
[2]; 1 × 10^−6 g/mL
  Maximum aggregation: 4.0 ± 0.7 %
  Inhibition of platelet aggregation: 89.0%
[2]; 1 × 10^−7 g/mL
  Maximum aggregation: 3.2 ± 0.6 %
  Inhibition of platelet aggregation: 91.2%
[2]; 1 × 10^−8 g/mL
  Maximum aggregation: 28.7 ± 3.6%
  Inhibition of platelet aggregation: 20.9%

— patent publication US8143316B2, “Method for treating peripheral vascular diseases” (Sucampo AG, priority 2005, dated 2012)
